# Data: patent publication US20230091047A1 (priority 2019, published 2023)
# Like-named read-outs stand apart in the source and are kept apart here.
# Legend:
# in vitro = assay type: cell-based; conditions: human, HepG2 or HepG2.117 cells, ATPlite, mean value
# How it was run: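 Luminescent ATP quantitation served as the viability endpoint following a 3- or 4-day incubation with test compounds.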
# [1] = tested on: HBV (HepG2.117 cell line, inducibly HBV producing); experiment: Anti-HBV activity: intracellular HBV DNA by real-time PCR in HepG2.117 cells after 3 days of treatment; assay type: cell-based, hepatitis B virus
# How it was run: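 Read-out is intracellular HBV DNA, measured by real-time PCR using HBV-specific primers and probe. Cells were stable, inducible HBV-producing HepG2.117 (Tet-off). Serially diluted compound was applied for 3 days after replication was induced.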
# [2] = 3-days incubation (unmarked values)
# [3] = Hepatitis B virus, HepG2.117, 72 h, HepG2.117 cells, 3 days of treatment, intracellular HBV DNA by real-time PCR; mean value; read-out: EC50 (μM, mean value)
# [4] = 3-days incubation (not marked with *)
# [5] = Hepatitis B virus, HepG2.117, 72 h, HepG2.117 cells, intracellular HBV DNA by real-time PCR, 3 days of treatment, mean value; read-out: EC50 (μM, mean value)
Compound,CC50 at 3 days (in vitro; [2]),"EC50 [1, 3]",CC50 at 3 days (in vitro; [4]),"EC50 [1, 5]"
"CNC(=O)c1ccc(-n2c(N[C@@H](C)c3ccccc3)nc3c(c2=O)C[C@@H](C)N(C(=O)c2ccc(Cl)c(Cl)c2)C3)cc1 [Compound C253, 4-[(6R)-7-(3,4-dichlorobenzoyl)-6-methyl-4-oxo-2-{[(1S)-1-phenylethyl]amino}-5,6,7,8-tetrahydropyrido[3,4-d]pyrimidin-3(4H)-yl]-N-methylbenzamide]",22.9 µM,0.1 µM,–,–
CNc1[nH]nc2cc(-n3c(NC(C)C)nc4c(c3=O)C[C@@H](C)N(C(=O)c3ccc(Cl)c(Cl)c3)C4)ccc12 [Compound C627],–,–,33.6 µM,0.12 µM
CC(C)Nc1nc2c(c(=O)n1-c1ccc(S(C)(=O)=O)cc1)CCN(C(=O)c1ccc(C(F)(F)F)nc1)C2 [Compound C367],> 50 µM,> 10 µM,–,–
CNC(=O)c1ccc(-n2c(NC(C)C)nc3c(c2=O)C[C@@H](C)N(C(=O)c2ccc(Cl)c(OC(F)(F)F)c2)C3)cc1 [Compound C635],–,–,> 50 µM,0.07 µM
Cc1cc(-c2ncc[nH]2)ccc1-n1c(NC(C)C)nc2c(c1=O)C[C@@H](C)N(C(=O)c1ccc(Cl)c(Cl)c1)C2 [Compound C399],–,–,25.2 µM,0.24 µM
"CNC(=O)c1ccc(-n2c(NC(C)C)nc3c(c2=O)C[C@@H](C)N(C(=O)c2ccc(Cl)c(C(F)(F)F)c2)C3)c(C(F)F)c1 (single isomer, unassigned) [Compound C669a]",–,–,29.8 µM,0.02 µM
CNC(=O)c1ccc(-n2c(NC(C)c3cn(C)nn3)nc3c(c2=O)C[C@@H](C)N(C(=O)c2ccc(Cl)c(Cl)c2)C3)cc1 (some centres unmarked) [Compound C489],–,–,> 50 µM,> 25 µM
"CC[C@@H](C)Oc1nc2c(c(=O)n1-c1ccc(C(=O)NC)cc1)C[C@@H](C)N(C(=O)c1ccc(Cl)c(Cl)c1)C2 [Compound C397, 4-(R-2-(R-sec-butoxy)-7-(3,4-dichlorobenzoyl)-6-methyl-4-oxo-5,6,7,8-tetrahydropyrido[3,4-d]pyrimidin-3(4H)-yl)-N-methylbenzamide]",–,–,25.2 µM,0.05 µM
CNC(=O)c1ccc(-n2c(NC(C)C)nc3c(c2=O)C[C@@H](C)N(C(=O)c2ccc4[nH]c(=O)n(C)c4c2)C3)cc1 [Compound C509],–,–,> 50 µM,> 25 µM
"COCCn1c(NCc2ccccc2)nc2c(c1=O)CCN(C(=O)c1ccc(Cl)c(Cl)c1)C2 [Compound C28, 2-(benzylamino)-7-(3,4-dichlorobenzoyl)-3-(2-methoxyethyl)-5,6,7,8-tetrahydropyrido[3,4-d]pyrimidin-4(3H)-one]",25.2 µM,9.1 µM,–,–
CNC(=O)c1ccc(-n2c(NCc3cn(C)nn3)nc3c(c2=O)C[C@@H](C)N(C(=O)c2ccc(Cl)c(Cl)c2)C3)cc1 [Compound C469],–,–,> 50 µM,> 25 µM
CNC(=O)c1ccc(-n2c(NC(C)C)nc3c(c2=O)C[C@@H](C)N(C(=O)c2ccc4c(c2)CNC4=O)C3)cc1 [Compound C494],–,–,> 50 µM,2.64 µM
"Cc1ccncc1-n1c(NC(C)C)nc2c(c1=O)CCN(C(=O)c1ccc(Cl)c(Cl)c1)C2 [Compound C114, 7-(3,4-dichlorobenzoyl)-3-(4-methylpyridin-3-yl)-2-[(propan-2-yl)amino]-5,6,7,8-tetrahydropyrido[3,4-d]pyrimidin-4(3H)-one]",> 50 µM,1.78 µM,–,–
"CNC(=O)c1ccc([C@@H](C)Nc2nc3c(c(=O)n2-c2ccc(NC(C)=O)cc2)C[C@@H](C)N(C(=O)c2ccc(Cl)c(Cl)c2)C3)cc1 (single isomer, unassigned) [Compound C528a]",–,–,> 50 µM,3.38 µM
"CNC(=O)c1ccc(-n2c(N[C@H](C)c3ccncc3)nc3c(c2=O)C[C@@H](C)N(C(=O)c2ccc(Cl)c(Cl)c2)C3)cc1 (single isomer, unassigned) [Compound C375a]",> 50 µM,3.19 µM,–,–
"COc1ccc(C(CCO)Nc2nc3c(c(=O)[nH]2)CCN(C(=O)c2ccc(Cl)c(Cl)c2)C3)cc1 (centres unmarked) [Compound C92, 7-(3,4-dichlorobenzoyl)-2-{[3-hydroxy-1-(4-methoxyphenyl)propyl]amino}-5,6,7,8-tetrahydropyrido[3,4-d]pyrimidin-4(3H)-one]",24.8 µM,7.09 µM,–,–
"COc1ccc(CNc2nc3c(c(=O)[nH]2)CCN(C(=O)c2ccc(C#N)c(Cl)c2)C3)cc1 [Compound C82, 2-chloro-4-[2-{[(4-methoxyphenyl)methyl]amino}-4-oxo-4,5,6,8-tetrahydropyrido[3,4-d]pyrimidine-7(3H)-carbonyl]benzonitrile]",> 50 µM,23.4 µM,–,–
"CNC(=O)c1ccc(-n2c(N[C@@H](C)c3cnccn3)nc3c(c2=O)C[C@@H](C)N(C(=O)c2ccc(Cl)c(C(F)(F)F)c2)C3)cc1 (single isomer, unassigned) [Compound C665b]",–,–,> 50 µM,0.65 µM
CNC(=O)c1ccc(-n2c(NC(C)C)nc3c(c2=O)C[C@@H](C)N(C(=O)c2cc(F)c(Br)cc2Cl)C3)cc1 [Compound C592],–,–,> 50 µM,0.7 µM
"CNC(=O)c1ccc(-n2c(N[C@H](C)c3ccc(F)c(OC)c3)nc3c(c2=O)C[C@@H](C)N(C(=O)c2ccc(Cl)c(Cl)c2)C3)cc1 (single isomer, unassigned) [Compound C435a]",–,–,26.4 µM,0.1 µM
"CC(C)Nc1nc2c(c(=O)n1-c1ccc(S(C)(=O)=O)cc1)[C@@H](C)CN(C(=O)c1ccc(Cl)c(Cl)c1)C2 (single isomer, unassigned) [Compound C154A, (*R)-7-(3,4-dichlorobenzoyl)-2-(isopropylamino)-5-methyl-3-(4-(methylsulfonyl)phenyl)-5,6,7,8-tetrahydropyrido[3,4-d]pyrimidin-4(3H)-one]",> 50 µM,1.32 µM,–,–
"CC(C)Nc1nc2c(c(=O)n1-c1ccc(C(=O)NCCN3CCN(C)CC3)cc1)C[C@@H](C)N(C(=O)c1ccc(Cl)c(Cl)c1)C2 [Compound C208, 4-[(6R)-7-(3,4-dichlorobenzoyl)-6-methyl-4-oxo-2-[(propan-2-yl)amino]-5,6,7,8-tetrahydropyrido[3,4-d]pyrimidin-3(4H)-yl]-N-[2-(4-methylpiperazin-1-yl)ethyl]benzamide]",26.3 µM,0.62 µM,–,–
CC(C)Nc1nc2c(c(=O)[nH]1)C[C@@H](C)N(C(=O)c1ccc(Cl)c(Cl)c1)C2 [Compound C384],–,–,> 50 µM,0.75 µM
"CNC(=O)c1ccc(-n2c(N[C@@H](C)c3ccc(OC(F)(F)F)cc3)nc3c(c2=O)C[C@@H](C)N(C(=O)c2ccc(Cl)c(Cl)c2)C3)cc1 (single isomer, unassigned) [Compound C440b]",–,–,6.3 µM,0.07 µM
"CNC(=O)c1ccc(-n2c(N3CCCC3(C)C)nc3c(c2=O)C[C@@H](C)N(C(=O)c2ccc(Cl)c(Cl)c2)C3)cc1 [Compound C307, 4-[(6R)-7-(3,4-dichlorobenzoyl)-2-(2,2-dimethylpyrrolidin-1-yl)-6-methyl-4-oxo-5,6,7,8-tetrahydropyrido[3,4-d]pyrimidin-3(4H)-yl]-N-methylbenzamide]",28 µM,0.09 µM,–,–
